Source: patent US12158399B2, “CaMKK2 inhibitor compositions and methods of using the same” (Duke University, priority 2016, dated 2024)

Assays:
bone marrow derived MDSC = assay: In vitro MDSC generation from bone marrow with H2O2 or antioxidants; format: cell-based, mouse; details: added Day 0 and Day 3; 0.001 mM H2O2, 20 μM MitoTEMPO, 20 μM BHA
Excerpt: To further study how ROS regulates MDSC differentiation, low dose of H2O2 and two commonly used antioxidants, MitoTEMPO and Butylated hydroxyanisole (BHA), were separately added to the culture media during MDSC in vitro generation. At basal condition, KO marrow generated less M-MDSC cells while differentiated more into Ly6C−CD11c+I-A+ mature dendritic cells compared to WT ones. […] The higher level of ROS in CaMKK2 KO MDSCs limited M-MDSC accumulation by facilitating the myeloid cell differentiation.
Bone marrow cells were prepared as described before. Cells after RBC lysis were seeded to 6-well plates (Coring, NY, USA) at 1×10^6 per well in 5 ml DMEM (Gibco, MA, USA) supplied with 10% FBS, 2 mM L-glutamine, 1.5 g/L sodium bicarbonate, 10 mM HEPES, 1.0 mM sodium pyruvate (all from Gibco, MA, USA), 10% fetal bovine serum (Hyclone, MA, USA), 40 nM recombinant mouse GM-CSF and 40 nM recombinant mouse IL-6 (Biolegend, CA, USA), and with or without 50% E.G7 supernatant. The supernatant was half-changed on Day 3. The floating cells were collected on Day 5 and enriched by anti-mouse Gr-1 Microbeads (Miltenyi, Bergisch Gladbach, Germany). The cells with the purity >90% were used. In some experiments as indicated, the cells were stained with APC anti-mouse Gr-1, PE anti-mouse/human CD11b (Biolegend, CA, USA). Double positive cells were sorted with BD FACS Aria II cell sorter (BD, NJ, USA).
For MDSC and BMDC, only floating cells were collected. 1×10^6 cells were spun down in BD Falcon round-bottom polystyrene tubes (BD, NY, USA). The cell pellet was incubated with 50 μl PBS with 2% FBS with FITC anti-mouse CD11c, PE anti-mouse/human CD11b, PE-Cy7 anti-mouse Ly6G, APC anti-mouse F4/80, APC-Cy7 anti-mouse I-A (all from BioLegend, CA, USA), PerCP Cy5.5 anti-mouse Ly6C, and Fixable Viability Dye eFluor® 450 (eBioscience, CA, USA) at 4° C. for 15 min. Cells were washed once with 2 ml PBS with 2% FBS and fixed with 200 μl 1.5% PFA in 4° C. till analysis.

E0771 cells [1] = assay: Orthotopic E0771 mammary tumor growth; format: in vivo, mouse; details: orthotopic graft in syngeneic wildtype mice; STO-609 IP 3-times/week
Description: (§1) E0771, 4T1 and Met1 grafts: 200,000 of the indicated cells were grafted orthotopically into the mammary fat pad of mice. 4T1 and Met1 cells were grafted in 50% matrigel. Resulting tumors were assessed by direct caliper measurement. To get sizable tumors in Camkk2−/− mice for IHC and flow cytometry studies, a higher number of E0771 (4×10^5) where grafted. This information has been reported in the corresponding figures.
(§2) These drugs were administered intraperitoneally daily. […] GSK treatment was initiated at post-day 2.

4T1 cells = assay: Orthotopic 4T1 mammary tumor growth; format: in vivo, mouse; details: syngeneic wildtype mice; IP 3-times/week
Description: as §1
(§3) […] […] GSK treatment was initiated at post-day 2.

Met1 cells = assay: Orthotopic Met1 mammary tumor growth; format: in vivo, mouse; details: syngeneic wildtype mice; IP 100 moles/Kg body weight 3-times/week
Description: as §1, §3

E0771 tumors = assay: Flow cytometry of tumor-associated myeloid and lymphoid cells in E0771 tumors; format: in vivo, mouse; details: STO-609 vs vehicle treated mice
Description: Tumors were removed from mice and minced with a surgical scalpel. Minced tissues were added to 5 ml HBSS containing Ca^2+ and Mg^2+ (ThermoFisher Scientific, MA, USA), and supplied with collagenase 2 mg/ml and DNase 0.1 mg/ml (Roche, Basel, Switzerland). Subsequently, they were transferred in gentleMACS C tubes, dissected with gentleMACS dissociator (Miltenyi, Bergisch Gladbach, Germany) and incubated for […] at 37° C. At the end of this incubation, tumors were dissected again with gentleMACS dissociator, and cell suspension passed through 70 μm-cell strainers (Coring, NY, USA), washed twice in PBS w/2% FBS and used for FACS analysis.
Staining of tumor-infiltrating E0771 tumors: 5×10^6 cells suspension from dissected tumors were surface stained with APC Cy7-CD3, PE-CD8, PE Cy7-CD4, APC PD-1 (all from BioLegend, CA, USA). Cells were incubated for 15 min at 4° C., washed with PBS-2% FCS. PerCP/Cy5.5 PD-1 antibody (BioLegend, CA, USA) was used for intracellular staining on fixed and permeabilized cells, according with manufacture's protocol (BioLegend). For myeloid cells staining, cells were incubated with PE anti-mouse/human CD11b, PE-Cy7 anti-mouse Ly6G, APC anti-mouse F4/80 (all from BioLegend), PerCpCy5.5 anti-mouse Ly6C, APC Cy7-I-A and Fixable Viability Dye eFluor 450 (eBioscience, CA, USA) at 4° C. for 15 min in dark. Subsequently, cells were washed with PBS w/2% FBS and analyzed by FACS. Bone marrow-derived macrophages (1×10^6) were stained with PE anti-mouse/human CD11b, APC anti-mouse F4/80 (BioLegend), APC Cy7-I-A and Fixable Viability Dye eFluor 450 (eBioscience). The stained cells were analyzed using a BD FACSCanto flow cytometer (BD, NJ, USA). Data is analyzed using FlowJo (TreeStar, OR, USA).

E0771 cells [2] = assay: E0771 tumor growth in CD8+ T-cell depleted Camkk2-/- mice; format: in vivo, mouse; details: anti-CD8 treated Camkk2-/- mice, STO-609 vs vehicle
Description: as §1, §2
To deplete CD8+ cells, mice were injected intra-peritoneally with anti-mouse CD8 monoclonal antibody or its IgG control isotype (BioXCell, NH, USA) each at 200 μl at the concentration of 1 mg/ml 4 days and 1 day before tumor inoculation, and every 3 days after tumor cell injection. The effect of CD8 depletion was monitored by flow cytometry using 50 μl peripheral blood staining with APC anti-mouse CD8, APC-Cy7 anti-mouse CD45.2 (BioLegend) at the same time.

E.G7 tumor = assay: Flow cytometry of tumors and spleens of E.G7 tumor bearing mice; format: in vivo, mouse; details: vs DMSO
Description: The removed tumors were further minced with a surgical scalpel. The tissue were added to 5 ml HBSS w/Ca^2+ and Mg^2+ (ThermoFisher Scientific, MA, USA) supplied with collagenase 2 mg/ml and DNase 0.1 mg/ml (Roche, Basel, Switzerland) in gentleMACS C tubes and dissecting with gentleMACS dissociator (Miltenyi, Bergisch Gladbach, Germany). The samples were incubated in 37° C. for 15 min and passed through the 70 μm cell strainers (Coring, NY, USA). Cells were washed twice in PBS w/2% FBS before staining.
For myeloid cells staining, 5×10^6 cells were incubated with FITC anti-mouse CD11c, PE anti-mouse/human CD11b, PE-Cy7 anti-mouse Ly6G, APC anti-mouse F4/80 (all from BioLegend, CA, USA), PerCpCy5.5 anti-mouse Ly6C, Fixable Viability Dye eFluor® 450 (eBioscience, CA, USA) at 4° C. for 15 min in dark and washed with PBS w/2% FBS. The stained cells were analyzed using a BD FACSCanto flow cytometer (BD, NJ, USA). Data is analyzed using FlowJo (TreeStar, OR, USA).

E.G7 cells = assay: E.G7 lymphoma flank tumor growth under STO-609 treatment; format: in vivo, mouse; details: C57BL/6 mice, peritoneal injection every 2-3 days, vs DMSO; p<0.001
Description: Flank Tumor Model 1×10^5 E.G7 cells were suspended in 100 μl PBS and implanted subcutaneously to the right side flank of the mice. Tumors were monitored using bioluminescence imaging each week. Tumor sizes were measured with calibrator every 3-4 days and calculated as: Length×Width×Width/2. In some experiments 5×10^5 cells were used as indicated. Mice were sacrificed when tumor reached 2 cm^3. ELISpot Analysis
STO-609 was purchased from TORIS Bioscience (Bristol, UK). The C57BL/6 mice were purchased from the Jackson Laboratory (CA, USA). The mice were inoculated with 5×10^5 E.G7 cells to the right flank subcutaneously on day 0. On day 7, the tumor growth was measured using bioluminescent imaging. All the mice with visible tumor under luciferin detection were randomized into STO-609 treatment group or DMSO control group. […] The tumor size was monitored using a calibrator every 3-4 days. The experiment was terminated when the tumor reached 2 cm^3.

`COc1ccc(O)c(C(C)(C)C)c1` [BHA, Butylated hydroxyanisole] was tested, and the “M-MDSC number / accumulation” value (bone marrow derived MDSC) was “same phenomenon was also observed” and the “differentiation towards Ly6C-IA+CD11c+ dendritic cells” value (bone marrow derived MDSC) was “same phenomenon was also observed”.
With `CCCc1ccnc2[nH]cc(-c3ccc(C(=O)N[C@@H](CO)c4ccccc4)cc3)c12` [GSKi] the “E0771 mammary tumor growth (tumor volume)” value (E0771 cells [1]) was “inhibited”.
In the case of `OO` [H2O2], the “M-MDSC number / accumulation” value (bone marrow derived MDSC) is reported as “significantly decreased” and the “differentiation towards Ly6C-IA+CD11c+ dendritic cells” value (bone marrow derived MDSC) is reported as “increased both the count and percentage”.
`CC1(C)CC(NC(=O)C[P+](c2ccccc2)(c2ccccc2)c2ccccc2)CC(C)(C)N1[O]` [MitoTEMPO] was tested, and the “M-MDSC number / accumulation” value (bone marrow derived MDSC) was “significantly induced M-MDSC accumulation” and the “differentiation towards Ly6C-IA+CD11c+ dendritic cells” value (bone marrow derived MDSC) was “decreased the differentiation”.
`O=C(O)c1ccc2c3c1cccc3c(=O)n1c3ccccc3nc21` [STO-609] was tested, and the “4T1 mammary tumor growth (tumor volume)” value (4T1 cells) was “inhibited”, the “E0771 mammary tumor growth (tumor volume)” value (E0771 cells [1]) was “antitumor activity” and the “Met1 mammary tumor growth (tumor volume)” value (Met1 cells) was “inhibited”. For the same molecule, the “CD4+ T cells in E0771 tumors” value (E0771 tumors) was “promoting accumulation”, the “CD8+ T cells in E0771 tumors” value (E0771 tumors) was “promoting accumulation” and the “MHCII I-A high macrophages in E0771 tumors” value (E0771 tumors) was “promoting accumulation”. The “NK-T cells in E0771 tumors” value (E0771 tumors) was “promoting accumulation”, the “E0771 tumor growth in CD8+ T-cell depleted CamKK2-/- mice” value (E0771 cells [2]) was “without effect” and the “percentage of CD3 in the tumors” value (E.G7 tumor; E.G7 tumors, p<0.05) was “significantly higher”. For the same molecule, the “percentage of M-MDSC in the spleens” value (E.G7 tumor; Ly6C+ in CD11b+ population, p<0.001) was “much lower” and the “lymphoma growth (E.G7 tumor size)” value (E.G7 cells) was “significantly suppressed”.
